Columns and labels:
[1] = The drug is tested on Z-027 corresponding to metagenome with ENA study accession number: PRJEB37062 and ENA sample accession number: ERS12561826 for biotransformation under anaerobic condition. The drug concentrations were measured over 9 timepoints collected between 0 and 24 hours of incubation by liquid-chromatography-coupled mass spectrometry (LC–MS); conditions: 2 µM
[2] = The drug is tested on Z-021 corresponding to metagenome with ENA study accession number: PRJEB37062 and ENA sample accession number: ERS12561820 for biotransformation under anaerobic condition. The drug concentrations were measured over 9 timepoints collected between 0 and 24 hours of incubation by liquid-chromatography-coupled mass spectrometry (LC–MS); conditions: 2 µM
[3] = The drug is tested on Z-016 corresponding to mouse gut metagenome with ENA study accession number: PRJEB37062 and ENA sample accession number: ERS12561815 for biotransformation under anaerobic condition. The drug concentrations were measured over 9 timepoints collected between 0 and 24 hours of incubation by liquid-chromatography-coupled mass spectrometry (LC–MS); conditions: 2 µM
[4] = The drug is tested on Z-005 corresponding to metagenome with ENA study accession number: PRJEB37062 and ENA sample accession number: ERS12561805 for biotransformation under anaerobic condition. The drug concentrations were measured over 9 timepoints collected between 0 and 24 hours of incubation by liquid-chromatography-coupled mass spectrometry (LC–MS); conditions: 2 µM
[5] = The drug is tested on Z-004 corresponding to metagenome with ENA study accession number: PRJEB37062 and ENA sample accession number: ERS12561804 for biotransformation under anaerobic condition. The drug concentrations were measured over 9 timepoints collected between 0 and 24 hours of incubation by liquid-chromatography-coupled mass spectrometry (LC–MS); conditions: 2 µM
[6] = The drug is tested on WLS-350 corresponding to human gut metagenome with ENA study accession number: PRJEB37062 and ENA sample accession number: ERS12561789 for biotransformation under anaerobic condition. The drug concentrations were measured over 9 timepoints collected between 0 and 24 hours of incubation by liquid-chromatography-coupled mass spectrometry (LC–MS); conditions: 2 µM
[7] = The drug is tested on WLS-082 corresponding to human gut metagenome with ENA study accession number: PRJEB37062 and ENA sample accession number: ERS12561751 for biotransformation under anaerobic condition. The drug concentrations were measured over 9 timepoints collected between 0 and 24 hours of incubation by liquid-chromatography-coupled mass spectrometry (LC–MS); conditions: 2 µM
[8] = The drug is tested on WLS-027 corresponding to human gut metagenome with ENA study accession number: PRJEB37062 and ENA sample accession number: ERS12561744 for biotransformation under anaerobic condition. The drug concentrations were measured over 9 timepoints collected between 0 and 24 hours of incubation by liquid-chromatography-coupled mass spectrometry (LC–MS); conditions: 2 µM
[9] = The drug is tested on WLS-007 corresponding to human gut metagenome with ENA study accession number: PRJEB37062 and ENA sample accession number: ERS12561742 for biotransformation under anaerobic condition. The drug concentrations were measured over 9 timepoints collected between 0 and 24 hours of incubation by liquid-chromatography-coupled mass spectrometry (LC–MS); conditions: 2 µM
[10] = human gut metagenome, 24 h, 2 µM
[11] = human gut metagenome, 24 h, 2 µM; remark: listed apart in the source
[12] = human gut metagenome, 24 h, 2 µM; remark: listed apart in the source
[13] = human gut metagenome, 24 h, 2 µM; remark: listed apart in the source
[14] = human gut metagenome, 24 h, 2 µM; remark: listed apart in the source
[15] = human gut metagenome, 24 h, 2 µM; remark: listed apart in the source
[16] = human gut metagenome, 24 h, 2 µM; remark: listed apart in the source
[17] = human gut metagenome, 24 h, 2 µM; remark: listed apart in the source
[18] = human gut metagenome, 24 h, 2 µM; remark: listed apart in the source
[19] = human gut metagenome, 24 h, 2 µM; remark: listed apart in the source
[20] = human gut metagenome, 24 h, 2 µM; remark: listed apart in the source
Note: call rule not given here.

| SMILES | Bacterial Biotransformation [1] | Bacterial Biotransformation [2] | Bacterial Biotransformation [3] | Bacterial Biotransformation [4] | Bacterial Biotransformation [5] | Bacterial Biotransformation [6] | Bacterial Biotransformation [7] | Bacterial Biotransformation [8] | Bacterial Biotransformation [10] | Bacterial Biotransformation [11] | Bacterial Biotransformation [12] | Bacterial Biotransformation [13] | Bacterial Biotransformation [14] | Bacterial Biotransformation [15] | Bacterial Biotransformation [16] | Bacterial Biotransformation [17] | Bacterial Biotransformation [18] | Bacterial Biotransformation [19] | Bacterial Biotransformation [20] | Bacterial Biotransformation [9] |
| --- | --- | --- | --- | --- | --- | --- | --- | --- | --- | --- | --- | --- | --- | --- | --- | --- | --- | --- | --- | --- |
| Cc1cc2c(s1)Nc1ccccc1N=C2N1CCN(C)CC1 [OLANZAPINE] | Compound NOT metabolized | Compound NOT metabolized | Compound NOT metabolized | Compound NOT metabolized | Compound metabolized | Compound NOT metabolized | Compound NOT metabolized | Compound NOT metabolized | Compound NOT metabolized | Compound NOT metabolized | Compound NOT metabolized | Compound NOT metabolized | Compound metabolized |  | Compound metabolized | Compound NOT metabolized | Compound NOT metabolized | Compound NOT metabolized | Compound NOT metabolized | Compound NOT metabolized |
| CC(=O)O[C@H]1C(=O)[C@@]2(C)[C@H]([C@H](OC(=O)c3ccccc3)[C@]3(O)C[C@H](OC(=O)[C@H](O)[C@@H](NC(=O)c4ccccc4)c4ccccc4)C(C)=C1C3(C)C)[C@]1(OC(C)=O)CO[C@@H]1C[C@@H]2O [PACLITAXEL] | Compound NOT metabolized | Compound NOT metabolized | Compound metabolized | Compound metabolized | Compound NOT metabolized | Compound NOT metabolized | Compound metabolized | Compound metabolized | Compound NOT metabolized | Compound NOT metabolized | Compound metabolized | Compound NOT metabolized | Compound NOT metabolized | Compound NOT metabolized | Compound NOT metabolized | Compound NOT metabolized | Compound NOT metabolized | Compound NOT metabolized | Compound NOT metabolized |  |
| COc1ccc(Cc2nccc3cc(OC)c(OC)cc23)cc1OC [PAPAVERINE] | Compound NOT metabolized | Compound metabolized | Compound NOT metabolized | Compound metabolized | Compound NOT metabolized | Compound metabolized |  | Compound metabolized | Compound metabolized | Compound metabolized | Compound metabolized | Compound metabolized | Compound NOT metabolized | Compound NOT metabolized | Compound metabolized | Compound metabolized | Compound metabolized | Compound metabolized | Compound metabolized | Compound metabolized |
| CC(=O)OCC(=O)NCCCOc1cccc(CN2CCCCC2)c1 [ROXATIDINE ACETATE] | Compound metabolized | Compound metabolized | Compound metabolized | Compound metabolized | Compound metabolized | Compound metabolized | Compound metabolized |  | Compound metabolized | Compound metabolized | Compound metabolized | Compound NOT metabolized | Compound metabolized | Compound metabolized | Compound metabolized | Compound metabolized | Compound metabolized | Compound metabolized | Compound metabolized | Compound metabolized |

Further lines, with some results ahead:

| Bacterial Biotransformation [1] | Bacterial Biotransformation [2] | Bacterial Biotransformation [3] | Bacterial Biotransformation [4] | Bacterial Biotransformation [5] | Bacterial Biotransformation [6] | Bacterial Biotransformation [7] | Bacterial Biotransformation [8] | Bacterial Biotransformation [10] | Bacterial Biotransformation [11] | Bacterial Biotransformation [12] | Bacterial Biotransformation [13] | Bacterial Biotransformation [14] | Bacterial Biotransformation [15] | Bacterial Biotransformation [16] | Bacterial Biotransformation [17] | Bacterial Biotransformation [18] | Bacterial Biotransformation [19] | Bacterial Biotransformation [20] | SMILES | Bacterial Biotransformation [9] |
| --- | --- | --- | --- | --- | --- | --- | --- | --- | --- | --- | --- | --- | --- | --- | --- | --- | --- | --- | --- | --- |
| Compound NOT metabolized | Compound metabolized | Compound metabolized | Compound metabolized | Compound NOT metabolized | Compound metabolized | Compound metabolized | Compound metabolized | Compound metabolized | Compound NOT metabolized | Compound metabolized | Compound metabolized | Compound metabolized | Compound metabolized | Compound metabolized |  |  |  |  | COC1=C(OC)C(=O)C(CCCCCCCCCCO)=C(C)C1=O [IDEBENONE] | Compound metabolized |
| Compound NOT metabolized | Compound NOT metabolized | Compound metabolized | Compound NOT metabolized | Compound NOT metabolized | Compound NOT metabolized | Compound metabolized | Compound NOT metabolized | Compound NOT metabolized | Compound NOT metabolized | Compound NOT metabolized | Compound NOT metabolized | Compound metabolized | Compound NOT metabolized | Compound NOT metabolized | Compound NOT metabolized | Compound NOT metabolized | Compound NOT metabolized | Compound NOT metabolized | COc1cc(NC(C)CCCN)c2ncccc2c1.O=P(O)(O)O.O=P(O)(O)O (stereo unspecified) [PRIMAQUINE PHOSPHATE] |  |

— ChEMBL document CHEMBL5724914, “Linking interpersonal differences in gut microbiota composition and drug biotransformation activity” (2024)
